Assay results taken from US9255100B2 (BAYER INTELLECTUAL PROPERTY GMBH, priority 2010, dated 2016).

molecular target: T1, N-terminally GST-tagged human full length recombinant Mps-1 kinase (Homo sapiens, UniProt P33981); test: Mps-1 kinase assay (TR-FRET); assay type: biochemical; details: Mps1 IC50 [nM], 10 μM ATP, 1 μM peptide substrate, 60 min at 22° C.
T1 construct: N-terminally GST-tagged human full length recombinant Mps-1 kinase; purchased Invitrogen, Karslruhe, Germany PV4071
T1 sequence (P33981 1-857): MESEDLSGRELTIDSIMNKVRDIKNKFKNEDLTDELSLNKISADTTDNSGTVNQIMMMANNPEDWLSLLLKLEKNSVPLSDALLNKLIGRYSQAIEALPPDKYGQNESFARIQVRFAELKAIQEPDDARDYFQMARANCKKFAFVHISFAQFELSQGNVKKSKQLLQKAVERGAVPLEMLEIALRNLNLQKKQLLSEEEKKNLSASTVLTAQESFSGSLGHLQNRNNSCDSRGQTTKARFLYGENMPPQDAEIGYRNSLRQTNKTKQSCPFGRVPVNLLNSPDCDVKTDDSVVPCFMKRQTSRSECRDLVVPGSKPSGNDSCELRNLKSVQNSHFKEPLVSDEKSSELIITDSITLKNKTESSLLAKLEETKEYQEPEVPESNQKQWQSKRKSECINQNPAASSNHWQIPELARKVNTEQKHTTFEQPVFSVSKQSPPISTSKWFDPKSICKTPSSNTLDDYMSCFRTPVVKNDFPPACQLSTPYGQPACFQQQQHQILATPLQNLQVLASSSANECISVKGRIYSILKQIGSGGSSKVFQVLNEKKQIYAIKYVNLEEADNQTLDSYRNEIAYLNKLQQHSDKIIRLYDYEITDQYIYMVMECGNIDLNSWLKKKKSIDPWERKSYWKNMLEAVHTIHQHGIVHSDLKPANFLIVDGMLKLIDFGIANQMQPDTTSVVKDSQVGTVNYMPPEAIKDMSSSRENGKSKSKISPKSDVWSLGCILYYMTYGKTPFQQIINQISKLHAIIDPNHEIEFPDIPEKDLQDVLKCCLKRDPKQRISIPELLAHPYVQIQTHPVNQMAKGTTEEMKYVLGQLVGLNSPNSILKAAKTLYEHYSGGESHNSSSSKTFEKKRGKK
Procedure, shortened: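 Compounds were tested against recombinant full-length Mps-1 bearing an N-terminal GST tag, about 1 nM final, with a biotinylated amide-capped peptide as substrate. Detection reagents were then bound for 1 h at 22° C and the product read by TR-FRET.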

Row | SMILES | IC50
1 | CCNC(=O)c1ccc(-c2cnc3c(NCCOC)cc(Oc4cc(F)ccc4C)nn23)cc1C [Example 609, N-ethyl-4-{6-(5-fluoro-2-methylphenoxy)-8-[(2-methoxyethyl)a-mino]imidazo[1,2-b]pyridazin-3-yl}-2-methylbenzamide] | 2.9 nM
2 | Cc1cc(-c2cnc3c(NCCC(F)(F)F)cc(Oc4cccc(F)c4)nn23)ccc1C(=O)NCCC(F)(F)F [Example 554, 4-{6-(3-fluorophenoxy)-8-[(3,3,3-trifluoropropyl)amino]imidazo[1,2-b]pyridazin-3-yl}-2-methyl-N-(3,3,3-trifluoropropyl)benzamide] | 1.6 nM
3 | CNC(=O)c1ccc(-c2cnc3c(NCCC(F)(F)F)cc(Oc4ccc(OC)cc4F)nn23)cc1C [Example 576, 4-{6-(2-fluoro-4-methoxyphenoxy)-8-[(3,3,3-trifluoropropyl)a-mino]imidazo[1,2-b]pyridazin-3-yl}-N,2-dimethylbenzamide] | < 1 nM
4 | CCNC(=O)c1ccc(-c2cnc3c(NCC4CCOCC4)cc(Oc4ccc(OC)cc4F)nn23)cc1C [Example 598, N-ethyl-4-{6-(2-fluoro-4-methoxyphenoxy)-8-[(tetrahydro-2H-pyran-4-ylmethyl)a-mino]imidazo[1,2-b]pyridazin-3-yl}-2-methylbenzamide] | < 1 nM
5 | CCNC(=O)c1ccc(-c2cnc3c(NCC4CCOCC4)cc(Oc4cc(F)ccc4C)nn23)cc1C [Example 599, N-ethyl-4-{6-(5-fluoro-2-methylphenoxy)-8-[(tetrahydro-2H-pyran-4-ylmethyl)a-mino]imidazo[1,2-b]pyridazin-3-yl}-2-methylbenzamide] | 1 nM
6 | Cc1cc(-c2cnc3c(NCCC(F)(F)F)cc(Oc4cccc(F)c4)nn23)ccc1C(=O)O [Example 550, 4-{6-(3-fluorophenoxy)-8-[(3,3,3-trifluoropropyl)amino]imidazo[1,2-b]pyridazin-3-yl}-2-methylbenzoic acid] | 0.5 nM
7 | Cc1cc(-c2cnc3c(NCCC(F)(F)F)cc(Sc4ccc(F)cc4N)nn23)ccc1C(=O)NC1CC1 [Example 417, 4-{6-[(2-amino-4-fluorophenyl)sulfanyl]-8-[(3,3,3-trifluoropropyl)amino]imidazo[1,2-b]pyridazin-3-yl}-N-cyclopropyl-2-methylbenzamide] | 0.2 nM
8 | CC(C)(O)CNc1cc(-c2ccc(F)cc2)nn2c(-c3ccc(-c4cnc(C5CC5)[nH]4)cc3)cnc12 [Example 8, 1-({3-[4-(2-Cyclopropyl-1H-imidazol-5-yl)phenyl]-6-(4-fluorophenyl)imidazo[1,2-b]pyridazin-8-yl}amino)-2-methylpropan-2-ol] | 111 nM
9 | COc1ccc(Oc2cc(NCCC(F)(F)F)c3ncc(-c4ccc(C(=O)NC5CC5)c(C)c4)n3n2)cc1F [Example 475, N-cyclopropyl-4-{6-(3-fluoro-4-methoxy-phenoxy)-8-[(3,3,3-tri-fluoropropyl)amino]imidazo[1,2-b]pyridazin-3-yl}-2-methylbenzamide] | 0.2 nM
10 | CCNC(=O)c1ccc(-c2cnc3c(NCCC(F)(F)F)cc(Oc4ccccc4C)nn23)cc1C [Example 601, N-ethyl-2-methyl-4-{6-(2-methylphenoxy)-8-[(3,3,3-trifluoropropyl)a-mino]imidazo[1,2-b]pyridazin-3-yl}benzamide] | < 1 nM
11 | Cc1cc(-c2cnc3c(NCCC(F)(F)F)cc(Oc4cccc(OC(C)C)c4)nn23)ccc1C(=O)NC1CC1 [Example 381, N-cyclopropyl-2-methyl-4-{6-[3-(propan-2-yloxy)phenoxy]-8-[(3,3,3-trifluoropropyl)amino]imidazo[1,2-b]pyridazin-3-yl}benzamide] | 0.6 nM

Next, values leading:

Row | IC50 | SMILES
12 | 21.5 nM | Cn1nccc1-c1cc(NC[C@H](O)[C@H]2COC(C)(C)O2)c2ncc(-c3ccc(C(=O)NC4CC4)cc3)n2n1 [Example 192, N-cyclopropyl-4-[8-({(2S)-2-[(4R)-2,2-dimethyl-1,3-dioxolan-4-yl]-2-hydroxyethyl}amino)-6-(1-methyl-1H-pyrazol-5-yl)imidazo[1,2-b]pyridazin-3-yl]benzamide]
13 | 23.8 nM | CC=Cc1cc(NCC(C)(C)O)c2ncc(-c3ccc(C(=O)NC4CC4)c(C)c3)n2n1 (mixture of isomers) [Example 24, N-cyclopropyl-4-{8-[(2-hydroxy-2-methylpropyl)amino]-6-[(1E/Z)-prop-1-en-1-yl]imidazo[1,2-b]pyridazin-3-yl}-2-methylbenzamide]
14 | 30 nM | Cc1cc(-c2cnc3c(NCC(C)(C)O)cc(Sc4ccccn4)nn23)ccc1C(=O)NC1CC1 [Example 334, N-cyclopropyl-4-{8-[(2-hydroxy-2-methylpropyl)amino]-6-(pyridin-2-yl-sulfanyl)imidazo[1,2-b]pyridazin-3-yl}-2-methyl-benzamide]
15 | 27.5 nM | CC(C)CNc1cc(-c2cncc3ccccc23)nn2c(-c3ccc(C(=O)NC4CC4)cc3)cnc12 [Example 115, N-cyclopropyl-4-{6-(isoquinolin-4-yl)-8-[(2-methylpropyl)amino]imidazo[1,2-b]pyridazin-3-yl}benzamide]
16 | 0.9 nM | Cc1ccc(Sc2cc(NCC(C)(C)O)c3ncc(-c4ccc(C(=O)NC5CC5)c(C)c4)n3n2)c(F)c1 [Example 360, N-cyclopropyl-4-{6-[(2-fluoro-4-methylphenyl)sulfanyl]-8-[(2-hydroxy-2-methylpropyl)amino]imidazo[1,2-b]pyridazin-3-yl}-2-methylbenzamide]
17 | 2.3 nM | Cc1cc(-c2cnc3c(NCC(C)(C)O)cc(Sc4ccc(Cl)cc4CO)nn23)ccc1C(=O)NC1CC1 [Example 393, 4-(6-{[4-chloro-2-(hydroxymethyl)phenyl]sulfanyl}-8-[(2-hydroxy-2-methylpropyl)amino]imidazo[1,2-b]pyridazin-3-yl)-N-cyclopropyl-2-methylbenzamide]
18 | 2 nM | CC(=O)Nc1cccc(-c2cc(NCC(C)C)c3ncc(-c4ccc(C(=O)NC5CC5)cc4)n3n2)c1 [Example 126, 4-{6-[3-(Acetylamino)phenyl]-8-[(2-methylpropyl)amino]imidazo[1,2-b]pyridazin-3-yl}-N-cyclopropylbenzamide]
19 | 1.1 nM | CSc1cccc(Oc2cc(NCC(C)(C)O)c3ncc(-c4ccc(C(=O)NC5CC5)c(C)c4)n3n2)c1F [Example 458, N-cyclopropyl-4-{6-[2-fluoro-3-(methylsulfanyl)phenoxy]-8-[(2-hydroxy-2-methylpropyl)amino]imidazo[1,2-b]pyridazin-3-yl}-2-methylbenzamide]
20 | 1.8 nM | CC(C)CNc1cc(-c2cccs2)nn2c(-c3ccc(C(=O)NC4CC4)cc3)cnc12 [Example 121, N-cyclopropyl-4-{8-[(2-methylpropyl)amino]-6-(thiophen-2-yl)imidazo [1,2-b]pyridazin-3-yl} benzamide]
21 | 1.5 nM | Cc1cc(-c2cnc3c(NCC4(CO)COC4)cc(Oc4cccc(F)c4)nn23)ccc1C(=O)NC1CC1 [Example 490, N-cyclopropyl-4-[6-(3-fluoro-phenoxy)-8-({[3-(hydroxymethyl)oxetan-3-yl]methyl}amino)imidazo[1,2-b]pyridazin-3-yl]-2-methylbenzamide]
22 | 0.1 nM | COc1ccc(Oc2cc(NCC(C)(C)O)c3ncc(-c4ccc(C(=O)NC5CC5)c(C)c4)n3n2)cc1 [Example 86, N-cyclopropyl-4-{8-[(2-hydroxy-2-methylpropyl)amino]-6-(4-methoxyphenoxy)imidazo[1,2-b]pyridazin-3-yl}-2-methylbenzamide]
23 | 148 nM | COC(=O)c1cc(F)ccc1-c1cc(NCC(C)(C)O)c2ncc(-c3ccc(C(=O)NC4CC4)c(C)c3)n2n1 [Example 279, 2-{3-[4-(cyclopropylcarbamoyl)-3-methylphenyl]-8-[(2-hydroxy-2-methylpropyl)amino]imidazo[1,2-b]pyridazin-6-yl}-5-fluoro-benzoic acid methyl ester]
24 | 44.4 nM | C/C=C(\C)c1cc(NCC(C)(C)O)c2ncc(-c3ccc(C(=O)NC4CC4)cc3OC)n2n1 [Example 72, 4-{6-[(2E)-But-2-en-2-yl]-8-[(2-hydroxy-2-methylpropyl)amino]imidazo[1,2-b]pyridazin-3-yl}-N-cyclopropyl-3-methoxybenzamide]
25 | 4 nM | CC(C)CNc1cc(-c2ccc3c(c2)OCO3)nn2c(-c3ccc(C(=O)NC4CC4)cc3)cnc12 [Example 136, 4-{6-(1,3-Benzodioxol-5-yl)-8-[(2-methylpropyl)amino]imidazo[1,2-b]pyridazin-3-yl}-N-cyclopropylbenzamide]
26 | 0.3 nM | Cc1ccc(Cl)cc1Nc1cc(NCC(C)(C)O)c2ncc(-c3ccc(C(=O)NC4CC4)c(C)c3)n2n1 [Example 404, 4-{6-[(5-chloro-2-methylphenyl)amino]-8-[(2-hydroxy-2-methylpropyl)amino]imidazo[1,2-b]pyridazin-3-yl}-N-cyclopropyl-2-methylbenzamide]
